Values joined by “and” are separate entries in the source; they are usually repeats but may differ in a detail not shown here. Equal values may be shown once. Inconclusive results and toxic doses are left out. Rule as the data show it: active = T/C of 150% or more; inactive = T/C below 125%.
Test system: L1210 leukemia ip in BDF1 mice, survival T/C
Test: NCI In Vivo Anticancer Drug Screen. Data for tumor model L1210 Leukemia (intraperitoneal) in B6D2F1 (BDF1) mice
Details: endpoint: mean survival time, higher = longer survival
In short: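 Each compound was tested against a transplantable tumor grown in mice. The endpoint was survival, with treated animals benchmarked against vehicle controls as a simple ratio.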

[1] = dose: 25.0 mg/kg/injection, schedule: Q01DX001 (ip), vehicle: saline
[2] = dose: 50.0 mg/kg/injection, schedule: Q01DX001 (ip), vehicle: saline
[3] = dose: 100.0 mg/kg/injection, schedule: Q01DX001 (ip), vehicle: saline with Tween-80
[4] = dose: 100.0 mg/kg/injection, schedule: Q01DX001 (ip), vehicle: saline
[5] = dose: 200.0 mg/kg/injection, schedule: Q01DX001 (ip), vehicle: saline
[6] = dose: 400.0 mg/kg/injection, schedule: Q01DX001 (ip), vehicle: saline
[7] = dose: 100.0 mg/kg/injection, schedule: Q04DX003 (ip), vehicle: Klucel (hydroxypropylcellulose) (HPC)
[8] = dose: 200.0 mg/kg/injection, schedule: Q04DX003 (ip), vehicle: Klucel (hydroxypropylcellulose) (HPC)
[9] = dose: 400.0 mg/kg/injection, schedule: Q04DX003 (ip), vehicle: Klucel (hydroxypropylcellulose) (HPC)
[10] = dose: 100.0 mg/kg/injection, schedule: Q01DX001 (ip), vehicle: carboxymethylcellulose (CMC)
[11] = dose: 200.0 mg/kg/injection, schedule: Q01DX001 (ip), vehicle: carboxymethylcellulose (CMC)
[12] = dose: 400.0 mg/kg/injection, schedule: Q01DX001 (ip), vehicle: carboxymethylcellulose (CMC)
[13] = dose: 100.0 mg/kg/injection, schedule: Q04DX003 (ip), vehicle: saline with Tween-80
[14] = dose: 200.0 mg/kg/injection, schedule: Q04DX003 (ip), vehicle: saline with Tween-80
[15] = dose: 25.0 mg/kg/injection, schedule: Q04DX003 (ip), vehicle: Klucel (hydroxypropylcellulose) (HPC)
[16] = dose: 50.0 mg/kg/injection, schedule: Q04DX003 (ip), vehicle: Klucel (hydroxypropylcellulose) (HPC)
[17] = dose: 100.0 mg/kg/injection, schedule: Q01DX001 (ip), vehicle: Klucel (hydroxypropylcellulose) (HPC)
[18] = dose: 200.0 mg/kg/injection, schedule: Q01DX001 (ip), vehicle: Klucel (hydroxypropylcellulose) (HPC)
[19] = dose: 100.0 mg/kg/injection, schedule: Q04DX003 (ip), vehicle: saline
[20] = dose: 200.0 mg/kg/injection, schedule: Q04DX003 (ip), vehicle: saline
[21] = dose: 400.0 mg/kg/injection, schedule: Q04DX003 (ip), vehicle: saline
[22] = dose: 200.0 mg/kg/injection, schedule: Q01DX001 (ip), vehicle: saline with Tween-80
[23] = dose: 100.0 mg/kg/injection, schedule: Q01DX009 (ip), vehicle: saline

Measured: T/C

N#Cc1cn(-c2ccc(Cl)cc2)c2ncccc12
inactive: [1] 100 % of control | [2] 100 % of control | [3] 88 % of control | [4] 100 % of control | [5] 87 % of control | [6] 102 % of control

Cc1cc(NC(=O)Nc2ccc(Cl)cc2)no1
inactive: dose: 100.0 mg/kg/injection, schedule: Q04DX003 (ip), vehicle: saline sonified 95 % of control | dose: 200.0 mg/kg/injection, schedule: Q04DX003 (ip), vehicle: saline sonified 87 % of control | dose: 400.0 mg/kg/injection, schedule: Q04DX003 (ip), vehicle: saline sonified 87 % of control

COC(OC)C1=C(Cl)C(Cl)=C(Cl)/C1=N\Nc1ccccc1
inactive: [7] 109 % of control | [8] 98 % of control | [9] 100 % of control

CSc1nc(O)cc(=O)n1C
inactive: dose: 100.0 mg/kg/injection, schedule: Q01DX Z (ip), vehicle: methylcellulose (MC) 95 % of control | dose: 200.0 mg/kg/injection, schedule: Q01DX Z (ip), vehicle: methylcellulose (MC) 101 % of control

O=[N+]([O-])c1cccc(C[n+]2ccccc2C2OCCO2)c1
inactive: dose: 35.0 mg/kg/injection, schedule: Q01DX009 (ip), vehicle: saline 95 % of control

CCCCCCCCC1SC1CCCCCCCC(=O)NCCCOCCOCCOCC (stereo not given)
inactive: [7] 96 % of control | [8] 100 % of control | [9] 96 % of control

Cc1ccc(C2CCCCC2OS(C)(=O)=O)cc1 (stereo not given)
inactive: [10] 95 % of control | [11] 92 % of control | [12] 97 % of control

S=c1nc2[nH]c3ccccc3c2n[nH]1
inactive: [13] 94 % of control | [14] 89 % of control

Cc1ccc2[nH]c3c(c2c1)C[P+](Cc1cccc2ccccc12)(c1ccccc1)CC3 (stereo not given)
inactive: dose: 25.0 mg/kg/injection, schedule: Q01DX001 (ip), vehicle: Klucel (hydroxypropylcellulose) (HPC) 87 % of control | [15] 91 % of control | dose: 50.0 mg/kg/injection, schedule: Q01DX001 (ip), vehicle: Klucel (hydroxypropylcellulose) (HPC) 92 % of control | [16] 105 % of control | [17] 112 % of control and 86 % of control | [7] 99 % of control | [18] 95 % of control

CC1CC(C(=O)O)C(Cc2ccc([N+](=O)[O-])cc2)C1=O (stereo not given)
inactive: dose: 100.0 mg/kg/injection, schedule: Q04DX002 (ip), vehicle: Klucel (hydroxypropylcellulose) (HPC) 93 % of control | dose: 200.0 mg/kg/injection, schedule: Q04DX002 (ip), vehicle: Klucel (hydroxypropylcellulose) (HPC) 93 % of control | dose: 400.0 mg/kg/injection, schedule: Q04DX002 (ip), vehicle: Klucel (hydroxypropylcellulose) (HPC) 89 % of control

Cc1ccc(N=Cc2cc(Cl)cc(Cl)c2OC(=O)c2ccccc2)cc1C
inactive: dose: 100.0 mg/kg/injection, schedule: Q04DX002 (ip), vehicle: saline with Tween-80 95 % of control | dose: 200.0 mg/kg/injection, schedule: Q04DX002 (ip), vehicle: saline with Tween-80 92 % of control | dose: 400.0 mg/kg/injection, schedule: Q04DX002 (ip), vehicle: saline with Tween-80 88 % of control

NCC(Cc1ccc(O)cc1)P(=O)(O)O (stereo not given)
inactive: [19] 100 % of control | [20] 95 % of control | [21] 92 % of control

CCC(CO)Nc1nc2ccccc2c2ccccc12 (stereo not given)
inactive: dose: 100.0 mg/kg/injection, schedule: Q01DX009 (ip), vehicle: Klucel (hydroxypropylcellulose) (HPC) 102 % of control | [7] 98 % of control | dose: 200.0 mg/kg/injection, schedule: Q01DX009 (ip), vehicle: Klucel (hydroxypropylcellulose) (HPC) 97 % of control | [8] 89 % of control | [9] 88 % of control

CCOC(=O)CNCCN(CC)CC
inactive: [3] 101 % of control | [22] 111 % of control | dose: 400.0 mg/kg/injection, schedule: Q01DX001 (ip), vehicle: saline with Tween-80 94 % of control

CCN(CCCl)CCCNc1c2ccc(Cl)cc2nc2ccc(OC)nc12
inactive: dose: 1.5 mg/kg/injection, schedule: Q01DX009 (ip), vehicle: saline 119 % of control | dose: 6.0 mg/kg/injection, schedule: Q01DX009 (ip), vehicle: saline 91 % of control

OC1(c2ccccc2)c2ccccc2C(O)(c2ccccc2)c2c1ccc1ccccc21 (stereo not given)
inactive: dose: 100.0 mg/kg/injection, schedule: Q01DX009 (ip), vehicle: saline with Tween-80 93 % of control | dose: 400.0 mg/kg/injection, schedule: Q01DX009 (ip), vehicle: saline with Tween-80 93 % of control

Cc1ccc(NC2=C(Cl)C(=O)c3ccccc3C2=O)cc1
inactive: dose: 50.0 mg/kg/injection, schedule: Q01DX001 (ip), vehicle: carboxymethylcellulose (CMC) 101 % of control | [10] 95 % of control | [11] 93 % of control | [12] 89 % of control

C/C(=C\Cl)CN1C(=O)c2ccccc2C1=O
inactive: [23] 93 % of control | [19] 97 % of control | dose: 200.0 mg/kg/injection, schedule: Q01DX009 (ip), vehicle: saline 113 % of control | [20] 101 % of control | dose: 400.0 mg/kg/injection, schedule: Q01DX009 (ip), vehicle: saline 102 % of control | [21] 105 % of control

C=C1C(=O)N(C)CCC1(O)C(CC)C(=O)OC (stereo not given)
inactive: dose: 6.25 mg/kg/injection, schedule: Q01DX001 (ip), vehicle: saline 98 % of control | dose: 12.5 mg/kg/injection, schedule: Q01DX001 (ip), vehicle: saline 98 % of control | [1] 98 % of control | [2] 98 % of control

O=C(CCBr)c1ccc(Cl)cc1
inactive: dose: 6.25 mg/kg/injection, schedule: Q01DX009 (ip), vehicle: saline with Tween-80 93 % of control | dose: 12.5 mg/kg/injection, schedule: Q01DX009 (ip), vehicle: saline with Tween-80 91 % of control | dose: 25.0 mg/kg/injection, schedule: Q01DX009 (ip), vehicle: saline with Tween-80 93 % of control

CC1CNC(=S)O1 (stereo not given)
inactive: dose: 50.0 mg/kg/injection, schedule: Q04DX003 (ip), vehicle: saline 96 % of control | [19] 98 % of control | [20] 101 % of control | [21] 108 % of control

Cc1nnc2[nH]c(=O)[nH]c(=O)c2n1
inactive: [2] 98 % of control | [4] 104 % of control | [5] 101 % of control | [6] 98 % of control

Cc1cc([N+](=O)[O-])sc1[N+](=O)[O-]
inactive: dose: 25.0 mg/kg/injection, schedule: Q01DX009 (ip), vehicle: saline 108 % of control | dose: 50.0 mg/kg/injection, schedule: Q01DX009 (ip), vehicle: saline 97 % of control | [23] 110 % of control | [19] 101 % of control

O=C(Nc1ccc([N+](=O)[O-])cc1Cl)Oc1ccc(OCc2ccccc2)cc1
inactive: [7] 91 % of control | [8] 91 % of control | [9] 96 % of control

CNNc1cc(CO)cnc1SC
inactive: [4] 105 % of control | [5] 104 % of control

Nc1cccc(OCc2nc(N)nc(N)c2-c2ccc(Cl)c(Cl)c2)c1
inactive: [3] 97 % of control | [22] 90 % of control

CSc1nncc(-c2ccccc2)n1
inactive: [15] 97 % of control | [16] 96 % of control | [17] 100 % of control | [7] 102 % of control

O=C(O)CCC(NC(=O)OCc1ccccc1)C(=O)NC(Cc1ccccc1)C(=O)O (stereo not given)
inactive: [13] 102 % of control | [14] 101 % of control | dose: 400.0 mg/kg/injection, schedule: Q04DX003 (ip), vehicle: saline with Tween-80 101 % of control

O=c1cc([N+](=O)[O-])n(O)cc1[N+](=O)[O-]
inactive: [4] 102 % of control | [5] 108 % of control | [6] 102 % of control

CC[CH2][Sn]([CH2]C)([c]1ccccc1)[c]1ccccc1
inactive: [17] 97 % of control | [18] 106 % of control | dose: 400.0 mg/kg/injection, schedule: Q01DX001 (ip), vehicle: Klucel (hydroxypropylcellulose) (HPC) 101 % of control
